# Measured values from patent US20230390268A1 (priority 2022, published 2023).
# “Also recorded” adds a separate entry of the source. Read-outs that look alike come from different tables or passages of the source.
# Columns and labels:
# TNFα = TNFα transcript levels by qPCR in SARS-CoV-2 infected Calu3 cells; format: cell-based, human; details: Calu3 cells infected with SARS-CoV-2
# IL6 = IL6 transcript levels by qPCR in SARS-CoV-2 infected Calu3 cells; format: cell-based, human; details: Calu3 cells infected with SARS-CoV-2
# SARS-CoV-2 [1] = format: cell-based
# IL8 = IL8 transcript levels by qPCR in SARS-CoV-2 infected Calu3 cells; format: cell-based, human; details: Calu3 cells infected with SARS-CoV-2
# [2] = system: Vesicular stomatitis virus (VSV); format: cell-based
# Vaccinia virus (VacV) = format: cell-based
# THF cells = experiment: Cell viability MTT assay; details: 50 μM, 24 hr, compared with DMSO
# [3] = system: Herpes Simplex Virus (HSV); format: cell-based
# ASK1/p38MAPK = format: cell-based, human
# HIV-1 NL4-3 GFP = format: cell-based
# HSV = experiment: HSV-GFP replication in CHL-11 hamster cell line; format: cell-based; details: CHL-11 cells, HSV-GFP MOI of 1, 0.1 or 0.01, Selonsertib 25 or 50 μM, 24 h
# JNK = format: cell-based, human
# SARS-CoV-2/SB3 = system: SARS-CoV-2/SB3; design: species or system Syrian Hamster; details: in vivo
# Calu3 cells = format: cell-based, human; details: 1 MOI of VSV, Selonsertib 50 μM, 24 hr
# mTORC1 = format: cell-based, human; details: Calu3 and THF cells infected with VSV, Selonsertib 50 μM, 24 hr, versus DMSO+VSV
# SARS-CoV-2 [4] = format: cell-based; remark: listed apart in the source
# VSV [5] = format: cell-based
# SARS-CoV-2 [6] = format: cell-based; remark: listed apart in the source
# VSV [7] = format: cell-based; remark: listed apart in the source
# autophagy = format: cell-based, human; details: Calu3 and THF cells infected with VSV, Selonsertib 50 μM, 24 hr
Compound,levels of TNFα (TNFα),levels of IL6 (IL6),SARS-CoV-2 replication (SARS-CoV-2 [1]),levels of IL8 (IL8),VSV replication [2],GFP-intensity of VacV (Vaccinia virus (VacV)),cell viability (THF cells),GFP-intensity of HSV [3],GFP-intensity of VSV [2],duration of effect on viral replication after aspirating drugs [2] [h],HIV-1-GFP replication (HIV-1 NL4-3 GFP),other results
"Cc1ccc(-n2nc(C(C)(C)C)cc2NC(=O)Nc2ccc(OCCN3CCOCC3)c3ccccc23)cc1 [BIRB, Doramapimod]",diminish,diminish,no antiviral properties,diminish,no obvious effect; also recorded: no noticeable effect,–,–,–,–,–,–,–
O=C(Nc1cccc(-c2nncn2C2CC2)c1)c1cc(-n2cnc(C3CC3)c2)ccn1 [GS-444217],diminish,diminish,drastically reduces,diminish,–,significantly abolish,healthy and safe; also recorded: no difference,significantly abolish,significantly abolish,24,abrogates replication,"duration of effect on phosphorylation of ASK1/p38MAPK after aspirating drugs (ASK1/p38MAPK; pretreatment 24 hours, drugs aspirated prior VSV infection, Calu3 cells): 24 h"
Cc1cc(F)c(C(=O)Nc2cccc(-c3nncn3C(C)C)n2)cc1-n1cnc(C2CC2)c1 [Selonsertib],diminish,diminish,drastically reduces,diminish,gradually decreased,significantly abolish,healthy and safe; also recorded: no difference,significantly abolish,significantly abolish,24,abrogates replication,"antiviral effect against HSV in hamster cell line (HSV): antiviral properties; JNK phosphorylation (JNK): reduced; percentage of weight loss (SARS-CoV-2/SB3; hamster): the most; IHC staining against SARS-CoV2 nucleocapsid in the hamster lung tissue (SARS-CoV-2/SB3): dominated a spatial area of the lung tissue; SARS-CoV-2 replication in hamster tissue (SARS-CoV-2/SB3): augmented; changes in cell morphology caused by VSV replication (Calu3 cells): remarkably alleviates; also recorded: relieved; Phosphorylation levels of p70 (S6K1) (mTORC1): not changed; SARS-CoV-2 nucleoprotein in infected HAP1 KO cells treated or not (SARS-CoV-2 [4]): no significant difference; antiviral effect against VSV in hamster cell line (VSV [5]): antiviral properties; level of SARS-CoV2 nucleocapsid (SARS-CoV-2 [6]): remarkably increased; VSV infection in HAP1 KO cells (VSV [7]): still able to swipe the leftover of VSV infection; duration of effect on phosphorylation of ASK1/p38MAPK after aspirating drugs (ASK1/p38MAPK): 24 h; time after adding drug at which p38MAPK phosphorylation starts to weaken (ASK1/p38MAPK): 2 h; time after adding drug at which VSV replication starts to weaken [2]: 2 h; autophagy marker, LC3II (autophagy): not affected"
